Test results as given in patent US11492347B2 (ENYO PHARMA, priority 2018, dated 2022).

Columns and labels:
NFκB = NFκB reporter assay, TNFα stimulation of A549 NFκB-NanoLuciferase reporter cells; format: cell-based; conditions: Homo sapiens, 4 ng/ml TNFα, NanoGlo luciferase assay 6 hours later
Source text: Compounds of the present invention have been tested for their capacity to inhibit NFκB.
The NFκB reporter construct was made by cloning 5 NFκB responsive elements upstream of a NanoLuciferase reporter gene flanked by AAVS1 genomic sequences.
NFκB Responsive element fused with NanoLuciferase and SV40 late Poly(A) signal was amplified from pNL3.2-NFκB-Nluc (Promega) using NFKB-NLUC-F and NFKB-NLUC-R primers and inserted by Infusion (TaKaRa) in AAVS1 SA-2A-puro-pA donor plasmid (Hockemeyer et al, Nat Biotechnol. 2009, 27, 851-7) digested by Sal1. pCRISPR AAVS1-T2 expressing a guide RNA (gRNA) to target human AAVS1 (T2 target sequence) was constructed by inserting AAVS1-T2A hybridized primers in pLentiCRISPR v2-blast (Sanjana et al, Nat Methods. 2014, 11, 783-4) digested by Bsmbl.
A549 cells were transfected by the plasmids and puromycine selected for 5 days (1 μg mL-1). Then clones were obtained by limiting dilution and selected to maximize TNF dependent NFκB-NanoLuciferase induction.
The reporter cells were seeded on a 96-well plate for overnight with DMEM including 10% FBS. Test compounds were added at varying concentrations. The cells then were treated with 4 ng/ml TNFα (Peprotech, ref E251) in DMEM+10% FBS. NanoGlo luciferase assay (Promega) was carried out 6 hours later. Luminescence was measured using a Spark 20M spectrofluorimeter (Tecan). Values were normalized to the luminescence measured in untreated cells.

MMXF L-363 = test: Cytotoxicity, propidium iodide based monolayer assay; format: cell-based; conditions: Homo sapiens, 96 h; MMXF L-363 multiple myeloma, four days of treatment, T/C=50%; read-out: Absolute IC50
Experimental: (§1) The cytotoxicity was tested for compounds of the invention on five different cell-lines, namely LXFL 1121, MAXF 401, MMXF L-636, PRXF PC-3M and UXF 1138 which are respectively lung large cell carcinoma, breast adeno carcinoma, multiple myeloma, prostate adeno carcinoma and uterine sarcoma.
(§2) A working stock solution of the test compounds was prepared in DMSO at a concentration of 33 mM or 8.25 mM, and small aliquots were stored at −20° C. On each day of an experiment, a frozen aliquot of the working stock solution was thawed and stored at room temperature prior to and during treatment.
(§3) All liquid handling steps were performed using the Tecan Freedom EVO 200 platform. First, serial 2-fold dilutions of the 33 mM DMSO working stock solution were done in DMSO. The DMSO dilutions were then diluted 1:22 into cell culture medium in an intermediate dilution plate. Finally, 10 μl taken from the intermediate dilution plate were transferred to 140 μl/well of the final assay plate. Thus, the DMSO serial dilutions were diluted 1:330 with cell culture medium, and the DMSO concentration in the assay was 0.3% v/v.
(§4) Cell lines were routinely passaged once or twice weekly and maintained in culture for up to 20 passages. Most cell lines were grown at 37° C. in a humidified atmosphere with 5% CO2 in RPMI 1640 medium (25 mM HEPES, with L-glutamine, #FG1385, Biochrom, Berlin, Germany) supplemented with 10% (v/v) fetal calf serum (Sigma, Taufkirchen, Germany) and 0.05 mg/mL gentamicin (Life Technologies, Karlsruhe, Germany).
(§5) A modified propidium iodide (PI) based monolayer assay was used to assess the anti-cancer activity of the compounds. Briefly, cells were harvested from exponential phase cultures, counted and plated in 96 well flat-bottom microtiter plates at a cell density of 4,000 to 40,000 cells/well dependent on the cell line's growth rate. The individual seeding density for each cell line ensure exponential growth conditions over the whole or at least the bigger part of the treatment period. After a 24 h recovery period, to allow the cells to resume exponential growth, 10 μl of culture medium (6 control wells/cell line/plate) or of culture medium with test compounds were added. Compounds were applied at ten concentrations in 2-fold increments in duplicates up to 25 μM or 100 μM and treatment continued for four days. After four days of treatment, cells were next washed with 200 μl PBS to remove dead cells and debris, then 200 μl of a solution containing 7 μg/ml propidium iodide (PI) and 0.1% (v/v) Triton X-100 was added. After an incubation period of 1-2 hours at room temperature, fluorescence (FU) was measured using the Enspire Multimode Plate Reader (excitation λ=530 nm, emission k=620 nm) to quantify the amount of attached viable cells.
(§6) Drug effects were expressed in terms of the percentage of the fluorescence signal, obtained by comparison of the mean signal in the treated wells with the mean signal of the untreated controls (expressed by the test-versus-control value, T/C−value [%]):
(§7) [formula] IC values reported reflect the concentration of the test compound that achieves T/C=50%. Calculation was done by 4 parameter non-linear curve fit.

UXF 1138 = test: as above; format: cell-based; conditions: 96 h; UXF 1138 uterine sarcoma, four days of treatment, T/C=50%; read-out: Absolute IC50
Experimental: as §1, §2, §3, §4, §5, §6, §7

LXFL 1121 = test: as above; conditions: 96 h; LXFL 1121 lung large cell carcinoma, four days of treatment, T/C=50%; read-out: Absolute IC50
Experimental: as §1, §2, §3
Cell lines were routinely passaged once or twice weekly and maintained in culture for up to 20 passages. […]
A modified propidium iodide (PI) based monolayer assay was used to assess the anti-cancer activity of the compounds. Briefly, cells were harvested from exponential phase cultures, counted and plated in 96 well flat-bottom microtiter plates at a cell density of 4,000 to 40,000 cells/well dependent on the cell line's growth rate. […] After an incubation period of 1-2 hours at room temperature, fluorescence (FU) was measured using the Enspire Multimode Plate Reader (excitation λ=530 nm, emission k=620 nm) to quantify the amount of attached viable cells.
Drug effects were expressed in terms of the percentage of the fluorescence signal, obtained by comparison of the mean signal in the treated wells with the mean signal of the untreated controls (expressed by the test-versus-control value, T/C−value [%]): […]

PRXF PC-3M = test: as above; format: cell-based; conditions: Homo sapiens, 96 h; PRXF PC-3M prostate adeno carcinoma, four days of treatment, T/C=50%; read-out: Absolute IC50
Experimental: as §1, §2, §3, §4, §5, §6, §7

MAXF 401 = test: as above; format: cell-based; conditions: Homo sapiens, MAXF401, 96 h; MAXF 401 breast adeno carcinoma, four days of treatment, T/C=50%; read-out: Absolute IC50
Experimental: as §1, §2, §3, §4, §5, §6, §7

| SMILES | EC50 (NFκB) | IC50 (MMXF L-363) | IC50 (UXF 1138) | IC50 (LXFL 1121) | IC50 (PRXF PC-3M) | IC50 (MAXF 401) |
| --- | --- | --- | --- | --- | --- | --- |
| CC1(C)Cc2c(sc(NC(=O)c3ccc(N4CCOCC4)cc3)c2C(=O)O)C(C)(C)C1 [Compound #36, 5,5,7,7-Tetramethyl-2-[(4-morpholinobenzoyl)amino]-4,6-dihydrobenzothiophene-3-carboxylic acid] | 0.2 µM | 1.72 µM | 0.988 µM | – | – | – |
| CC1(C)CCc2sc(NC(=O)c3ccccc3)c(C(=O)O)c21 [Compound #37, 2-Benzamido-4,4-dimethyl-5,6-dihydrocyclopenta[b]thiophene-3-carboxylic acid] | – | 13.9 µM | 9.42 µM | 24.7 µM | 9.67 µM | 11.3 µM |
| COC1CN(c2ccc(C(=O)Nc3sc4c(c3C(=O)O)CC(C)(C)CC4(C)C)cc2)C1 [Compound #58, 2-[[4-(3-Methoxyazetidin-1-yl)benzoyl]amino]-5,5,7,7-tetramethyl-4,6-dihydrobenzothiophene-3-carboxylic acid] | – | – | 0.819 µM | 1.77 µM | 0.888 µM | – |
